Data reported in patent publication US11274100B2, “EP300/CREBBP inhibitor” (Daiichi Sankyo Company, Limited, priority 2017, dated 2022).

Assays:
[1] = target: EP300 (Homo sapiens, UniProt Q09472); test: Histone acetyltransferase inhibitory activity against EP300 (Test Example 1); assay type: biochemical; details: 50 ng/mL EP300, 2 μM Acetyl-CoA, 100 nM Histone H4(1-25)-GSGSK (Biotin), 28° C. for 1 hour
Method: (§1) [Test Example 1] Evaluation of Histone
(§2) Acetyltransferase Inhibitory Activity against EP300 and CREBBP
(§3) 10 μL each of reaction solutions each containing a different concentration of the compound of each of Examples 1 to 108b (50 mM Tris-HCl (pH8.0), 0.1 mM EDTA, 1 mM dithiothreitol, 0.01% Tween-20, 0.01% Bovine serum albumin, 330 nM trichostatin A, 2 μM Acetyl-CoA (Sigma-Aldrich, #A2056), 100 nM Histone H4(1-25)-GSGSK (Biotin) (Anaspec, #65242-1), 1% dimethyl sulfoxide, 10 to 0.0006 μM of each compound, 50 ng/mL EP300 or 125 ng/mL CREBBP) was added to respective wells of a 384-well plate, and cultured at 28° C. for 1 hour. Thereafter, 5 μL of 30 μM Lys-CoA (Daiichi Sankyo Co., Ltd.) dissolved in LANCE detection buffer (Perkin Elmer Co., Ltd., #CR97-100) was added to each well. Furthermore, 5 μL of LANCE detection buffer containing 2 nM Eu-anti pan-Ac (Perkin Elmer Co., Ltd., #TRF0412) and 50 nM Sta-Ulight (Perkin Elmer Co., Ltd., #TRF0102) was added to each well, and the resultant was cultured at room temperature overnight. EnVision (Perkin Elmer Co., Ltd., Model 2104-0020) was used to measure ULight signals. […] EP300 and CREBBP were produced and purified by Daiichi Sankyo RD Novare Co., Ltd.

[2] = target: CREBBP (Homo sapiens, UniProt Q92793); test: Histone acetyltransferase inhibitory activity against CREBBP (Test Example 1); assay type: biochemical; details: 125 ng/mL CREBBP, 2 μM Acetyl-CoA, 100 nM Histone H4(1-25)-GSGSK (Biotin), 28° C. for 1 hour
CREBBP, sequence (Q92793 whole entry): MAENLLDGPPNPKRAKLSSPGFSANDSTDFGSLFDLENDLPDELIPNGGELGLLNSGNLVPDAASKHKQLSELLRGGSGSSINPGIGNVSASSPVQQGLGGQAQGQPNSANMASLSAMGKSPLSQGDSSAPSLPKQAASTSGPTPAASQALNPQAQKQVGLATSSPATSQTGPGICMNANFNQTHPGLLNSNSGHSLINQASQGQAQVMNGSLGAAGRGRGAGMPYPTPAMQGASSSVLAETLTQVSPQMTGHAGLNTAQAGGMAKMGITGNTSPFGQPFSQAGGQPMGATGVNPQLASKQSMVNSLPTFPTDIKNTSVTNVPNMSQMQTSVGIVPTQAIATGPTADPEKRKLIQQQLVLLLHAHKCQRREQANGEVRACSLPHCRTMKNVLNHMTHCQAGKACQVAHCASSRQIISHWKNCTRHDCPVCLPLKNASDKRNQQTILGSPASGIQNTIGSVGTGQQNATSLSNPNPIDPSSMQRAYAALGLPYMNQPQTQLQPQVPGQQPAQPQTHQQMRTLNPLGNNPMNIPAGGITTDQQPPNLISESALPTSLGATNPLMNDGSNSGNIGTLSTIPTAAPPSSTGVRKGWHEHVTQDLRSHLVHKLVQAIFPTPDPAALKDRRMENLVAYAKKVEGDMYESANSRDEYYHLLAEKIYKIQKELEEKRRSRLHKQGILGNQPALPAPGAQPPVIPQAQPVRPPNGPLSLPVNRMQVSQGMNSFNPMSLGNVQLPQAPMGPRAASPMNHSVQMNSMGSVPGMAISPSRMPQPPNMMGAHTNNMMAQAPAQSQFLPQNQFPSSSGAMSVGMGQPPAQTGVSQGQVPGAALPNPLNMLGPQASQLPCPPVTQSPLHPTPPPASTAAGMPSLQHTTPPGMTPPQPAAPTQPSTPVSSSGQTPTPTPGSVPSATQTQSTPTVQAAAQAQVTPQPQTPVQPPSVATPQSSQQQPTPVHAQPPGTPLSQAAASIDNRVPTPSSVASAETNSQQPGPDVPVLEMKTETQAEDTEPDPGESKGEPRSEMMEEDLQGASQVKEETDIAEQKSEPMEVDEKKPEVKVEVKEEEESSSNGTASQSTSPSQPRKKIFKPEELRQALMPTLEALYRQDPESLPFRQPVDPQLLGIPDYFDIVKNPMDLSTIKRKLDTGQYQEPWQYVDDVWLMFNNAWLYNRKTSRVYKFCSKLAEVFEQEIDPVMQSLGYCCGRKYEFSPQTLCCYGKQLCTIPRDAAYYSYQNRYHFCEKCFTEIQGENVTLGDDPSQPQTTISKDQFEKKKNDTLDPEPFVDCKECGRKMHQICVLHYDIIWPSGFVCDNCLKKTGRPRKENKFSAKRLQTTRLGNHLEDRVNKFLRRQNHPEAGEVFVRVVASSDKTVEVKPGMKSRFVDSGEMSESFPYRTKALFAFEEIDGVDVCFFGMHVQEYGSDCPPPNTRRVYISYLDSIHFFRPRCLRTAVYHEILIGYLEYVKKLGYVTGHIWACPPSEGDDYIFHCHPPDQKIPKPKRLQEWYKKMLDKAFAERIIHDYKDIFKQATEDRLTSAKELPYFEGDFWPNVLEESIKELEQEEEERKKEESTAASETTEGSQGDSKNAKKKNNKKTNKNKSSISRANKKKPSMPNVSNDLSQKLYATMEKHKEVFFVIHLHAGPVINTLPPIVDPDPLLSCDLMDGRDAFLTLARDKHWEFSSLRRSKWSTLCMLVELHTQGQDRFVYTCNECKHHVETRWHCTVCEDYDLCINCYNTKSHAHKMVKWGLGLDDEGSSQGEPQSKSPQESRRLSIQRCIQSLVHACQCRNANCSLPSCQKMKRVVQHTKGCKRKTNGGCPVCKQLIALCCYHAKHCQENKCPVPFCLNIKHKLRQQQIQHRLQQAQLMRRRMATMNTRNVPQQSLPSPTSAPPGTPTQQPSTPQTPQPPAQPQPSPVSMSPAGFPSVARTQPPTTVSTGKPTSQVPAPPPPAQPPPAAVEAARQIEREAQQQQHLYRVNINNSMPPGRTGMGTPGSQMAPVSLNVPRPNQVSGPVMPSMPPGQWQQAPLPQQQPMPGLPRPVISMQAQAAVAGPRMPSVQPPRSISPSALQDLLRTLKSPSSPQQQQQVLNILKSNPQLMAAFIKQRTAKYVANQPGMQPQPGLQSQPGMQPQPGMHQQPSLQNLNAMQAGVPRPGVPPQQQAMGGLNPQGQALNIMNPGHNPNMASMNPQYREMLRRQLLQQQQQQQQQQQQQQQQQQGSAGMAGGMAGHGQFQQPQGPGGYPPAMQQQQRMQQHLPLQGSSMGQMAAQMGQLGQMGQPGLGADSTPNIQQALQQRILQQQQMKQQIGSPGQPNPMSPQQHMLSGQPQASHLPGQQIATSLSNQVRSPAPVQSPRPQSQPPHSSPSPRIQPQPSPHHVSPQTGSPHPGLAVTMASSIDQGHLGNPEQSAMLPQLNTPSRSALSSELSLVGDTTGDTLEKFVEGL
Method: as §1, §2, §3

[3] = system: H3K27Ac; test: Intracellular H3K27Ac inhibitory activity in LK2 cells (Test Example 2); assay type: cell-based; details: Homo sapiens, LK-2, cultured with compound for 3 hours, read-out: Test Example 2 H3K27Ac Inhibition (LK2) IC50
Method: [Test Example 2] Evaluation of Intracellular H3K27Ac Inhibitory Activity
LK2 cells derived from human squamous cell lung cancer were seeded in a 96 well plate at 40000 cells/100 μL/well, and were cultured overnight at 37° C. in 5% CO2. The LK2 cells were purchased from Human Science Research Resources Bank. […] The supernatant was discarded, 4% paraformaldehyde was added thereto at 100 μL/well, and the resultant was allowed to stand still at room temperature for 15 minutes. The 4% paraformaldehyde was discarded, and the resultant was washed with PBS-T. A quenching buffer (PBS-T containing 1% H2O2) was added thereto at of 100 μL/well, and the resultant was allowed to stand still at room temperature for 10 minutes. The resultant was washed with PBS-T, a blocking buffer (StartingBlocK T20 (TBS) Blocking Buffer (Thermo […], #37543)) was added thereto at 200 μL/well, and the resultant was allowed to stand still at room temperature for 1 hour. The supernatant was discarded, Acetyl-Histone H3 (Lys27) (D5E4) XP (registered trademark) Rabbit mAb (cell Signaling, #8173) diluted with a blocking buffer was added thereto at 50 μL/well, and the resultant was allowed to stand still at 4° C. overnight. The resultant was washed with PBS-T, Anti-Rabbit IgG-HRP (Cell Signaling, #7074S) diluted with a blocking buffer was added thereto at 50 μL/well, and the resultant was cultured at room temperature for 1 hour. The resultant was washed with PBS-T, SuperSignal (registered trademark) ELISA Pico Chemiluminescent Substrate (Thermo […], #37069) was added thereto at 50 μL/well, and a signal was measured using EnVision.

EP300, sequence (Q09472 whole entry): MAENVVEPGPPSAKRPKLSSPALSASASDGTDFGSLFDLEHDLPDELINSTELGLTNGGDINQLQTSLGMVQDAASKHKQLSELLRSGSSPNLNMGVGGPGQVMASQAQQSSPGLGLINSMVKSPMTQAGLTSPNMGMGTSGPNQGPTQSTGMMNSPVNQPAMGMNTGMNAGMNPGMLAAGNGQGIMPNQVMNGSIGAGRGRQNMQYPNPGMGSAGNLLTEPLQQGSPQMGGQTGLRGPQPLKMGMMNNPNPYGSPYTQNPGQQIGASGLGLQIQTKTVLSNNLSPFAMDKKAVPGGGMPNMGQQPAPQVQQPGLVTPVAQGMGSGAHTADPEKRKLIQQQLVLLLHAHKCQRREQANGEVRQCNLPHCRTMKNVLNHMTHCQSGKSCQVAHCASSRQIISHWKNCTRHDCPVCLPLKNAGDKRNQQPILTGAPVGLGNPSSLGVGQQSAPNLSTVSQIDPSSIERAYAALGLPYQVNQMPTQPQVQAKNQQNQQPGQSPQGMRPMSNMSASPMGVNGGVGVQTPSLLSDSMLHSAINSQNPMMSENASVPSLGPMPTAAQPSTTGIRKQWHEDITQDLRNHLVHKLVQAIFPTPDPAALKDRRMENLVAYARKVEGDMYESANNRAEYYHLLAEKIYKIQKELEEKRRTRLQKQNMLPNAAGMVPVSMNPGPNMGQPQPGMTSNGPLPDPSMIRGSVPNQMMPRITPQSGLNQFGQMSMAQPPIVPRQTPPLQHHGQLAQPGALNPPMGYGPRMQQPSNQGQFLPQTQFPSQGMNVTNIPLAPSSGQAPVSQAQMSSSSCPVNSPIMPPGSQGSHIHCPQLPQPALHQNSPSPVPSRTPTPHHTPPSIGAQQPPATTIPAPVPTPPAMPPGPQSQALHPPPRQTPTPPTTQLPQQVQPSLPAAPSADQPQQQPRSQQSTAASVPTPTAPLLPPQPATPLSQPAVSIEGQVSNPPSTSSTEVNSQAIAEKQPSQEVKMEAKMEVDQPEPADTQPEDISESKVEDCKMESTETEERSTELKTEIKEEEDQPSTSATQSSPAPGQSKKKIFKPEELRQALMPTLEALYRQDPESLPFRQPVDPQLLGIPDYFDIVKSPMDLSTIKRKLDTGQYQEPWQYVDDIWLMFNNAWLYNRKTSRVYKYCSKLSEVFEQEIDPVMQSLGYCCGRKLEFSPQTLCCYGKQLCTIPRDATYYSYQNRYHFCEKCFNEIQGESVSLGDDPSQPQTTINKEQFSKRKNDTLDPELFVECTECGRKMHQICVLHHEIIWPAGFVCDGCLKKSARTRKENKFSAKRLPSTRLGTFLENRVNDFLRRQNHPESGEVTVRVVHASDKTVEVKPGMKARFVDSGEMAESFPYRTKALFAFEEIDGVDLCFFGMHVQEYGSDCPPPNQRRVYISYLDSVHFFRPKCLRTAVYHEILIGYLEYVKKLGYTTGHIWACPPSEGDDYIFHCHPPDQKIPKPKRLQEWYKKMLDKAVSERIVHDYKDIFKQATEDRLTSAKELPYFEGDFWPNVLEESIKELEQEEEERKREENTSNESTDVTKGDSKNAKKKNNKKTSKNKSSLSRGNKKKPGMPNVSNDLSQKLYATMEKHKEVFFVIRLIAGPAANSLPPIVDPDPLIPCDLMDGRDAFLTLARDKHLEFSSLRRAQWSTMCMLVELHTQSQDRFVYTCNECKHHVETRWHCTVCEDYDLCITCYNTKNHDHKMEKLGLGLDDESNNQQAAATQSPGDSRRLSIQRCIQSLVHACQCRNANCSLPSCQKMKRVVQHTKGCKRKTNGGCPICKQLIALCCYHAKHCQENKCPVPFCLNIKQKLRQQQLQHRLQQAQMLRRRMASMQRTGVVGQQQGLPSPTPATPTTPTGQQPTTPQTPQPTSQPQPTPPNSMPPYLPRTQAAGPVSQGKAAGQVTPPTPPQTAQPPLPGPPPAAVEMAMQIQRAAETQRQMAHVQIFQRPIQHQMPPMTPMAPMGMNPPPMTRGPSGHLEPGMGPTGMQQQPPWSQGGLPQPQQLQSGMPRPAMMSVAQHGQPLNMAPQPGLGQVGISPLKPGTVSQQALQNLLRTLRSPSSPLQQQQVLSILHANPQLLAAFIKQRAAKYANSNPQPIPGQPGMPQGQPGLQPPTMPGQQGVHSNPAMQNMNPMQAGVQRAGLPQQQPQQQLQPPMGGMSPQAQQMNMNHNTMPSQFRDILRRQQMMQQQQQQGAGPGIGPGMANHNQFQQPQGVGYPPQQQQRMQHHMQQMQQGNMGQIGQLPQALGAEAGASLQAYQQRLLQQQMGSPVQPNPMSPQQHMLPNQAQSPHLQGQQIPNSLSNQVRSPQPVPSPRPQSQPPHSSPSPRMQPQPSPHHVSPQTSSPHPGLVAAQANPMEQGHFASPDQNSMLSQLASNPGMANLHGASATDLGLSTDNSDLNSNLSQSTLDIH

SMILES	IC50 [1]	IC50 [2]	IC50 [3]
COc1ccc(C2(C(=O)N3CCC[C@@H]3C(=O)Nc3ccn(C)n3)CCCC2)cc1 [Example 22, 1-{[1-(4-Methoxyphenyl)cyclopentyl]carbonyl}-N-(1-methyl-1H-pyrazol-3-yl)-D-prolinamide]	962 nM	676 nM	2250 nM
COc1ccc(C2(C(=O)N3CCC[C@@H]3C(=O)Nc3ccc(OCCN4CCOCC4)cc3C#N)CCCC2)cc1 [Example 23, N-{2-Cyano-4-[2-(morpholin-4-yl)ethoxy]phenyl}-1-{[1-(4-methoxyphenyl)cyclopentyl]carbonyl}-D-prolinamide]	101 nM	171 nM	121 nM
COc1ccc(C2(C(=O)N3C[C@](C)(O)C[C@@H]3C(=O)Nc3cccc4[nH]ncc34)CCCC2)cc1 [Example 31, (4R)-4-Hydroxy-N-1H-indazol-4-yl-1-{[1-(4-methoxyphenyl)cyclopentyl]carbonyl}-4-methyl-D-prolinamide]	364 nM	652 nM	1550 nM
O=C(NS(=O)(=O)C1CC1)c1ccc(C2(C(=O)N3C[C@H](F)C[C@@H]3C(=O)Nc3cccc4[nH]ncc34)CCCCC2)cc1 [Example 36, (4R)-1-[(1-{4-[(Cyclopropylsulfonyl)carbamoyl]phenyl}cyclohexyl)carbonyl]-4-fluoro-N-1H-indazol-4-yl-D-prolinamide]	17 nM	23 nM	> 10000 nM
COc1ccc(C2(C(=O)N3CS(=O)(=O)C[C@@H]3C(=O)Nc3ccc4[nH]ncc4n3)CCCCC2)cc1 [Example 40, (4S)-3-{[1-(4-Methoxyphenyl)cyclohexyl]carbonyl}-N-(1H-pyrazolo[4,3-b]pyridin-5-yl)-1,3-thiazolidin-4-carboxamide 1,1-dioxide]	22 nM	29 nM	27 nM
COc1ccc(C2(C(=O)N3C[C@H](F)C[C@@H]3C(=O)Nc3ccc4c(n3)NC(=O)CO4)CCCCC2)cc1 [Example 67, (4R)-4-Fluoro-1-{[1-(4-methoxyphenyl)cyclohexyl]carbonyl}-N-(3-oxo-3,4-dihydro-2H-pyrido[3,2-b][1,4]oxazin-6-yl)-D-prolinamide]	397 nM	678 nM	2410 nM

More lines, now with the values ahead:

IC50 [1]	IC50 [2]	IC50 [3]	SMILES
20 nM	125 nM	474 nM	N#Cc1ccccc1NC(=O)[C@H]1C[C@@H](F)CN1C(=O)C1(c2ccc(C(=O)O)cc2)CCCC1 [Example 29, 4-[1-({(2R,4R)-2-[(2-Cyanophenyl)carbamoyl]-4-fluoropyrrolidin-1-yl}carbonyl)cyclopentyl] benzoic acid]
182 nM	233 nM	577 nM	CNc1cccc(NC(=O)[C@H]2CCCN2C(=O)C2(c3ccc(OC)cc3)CCCC2)n1 [Example 30, 1-{[1-(4-Methoxyphenyl)cyclopentyl]carbonyl}-N-[6-(methylamino)pyridin-2-yl)-D-prolinamide]
40 nM	39 nM	307 nM	COc1ccc(C2(C(=O)N3CSC[C@@H]3C(=O)Nc3ccccc3C#N)CCCCC2)cc1 [Example 34, (4S)—N-(2-Cyanophenyl)-3-{[1-(4-methoxyphenyl)cyclohexyl]carbonyl}-1,3-thiazolidine-4-carboxamide]
